Patent US8030478B2, “Method for nucleic acid replication and novel artificial base pairs” (priority 2005, dated 2011)
Like-named read-outs stand apart in the source and are kept apart here.

Target: T7 RNA polymerase (Escherichia phage T7, UniProt P00573)
Conditions: for Composition of nucleotide incorporated as 5′ neighbor of A: Cp / Composition of nucleotide incorporated as 5′ neighbor of A: Up / Composition of nucleotide incorporated as 5′ neighbor of A: Ap / Composition of nucleotide incorporated as 5′ neighbor of A: Np (Pa′p) / Composition of nucleotide incorporated as 5′ neighbor of A: Gp: [α-32P]ATP; for Composition of nucleotide incorporated as 5′ neighbor of U: Np (Pa′p) / Composition of nucleotide incorporated as 5′ neighbor of U: Ap / Composition of nucleotide incorporated as 5′ neighbor of U: Gp / Composition of nucleotide incorporated as 5′ neighbor of U: Up / Composition of nucleotide incorporated as 5′ neighbor of U: Cp: [α-32P]UTP
[1] = Entry 7, template temp35Ds-3, natural NTP 1 mM, Pa′ 1 mM, theoretical [0]
[2] = Entry 7, template temp35Ds-3, natural NTP 1 mM, Pa′ 1 mM, theoretical [1]
[3] = Entry 8, template temp35Ds-3, natural NTP 1 mM, Pa′ 3 mM, theoretical [0]
[4] = Entry 8, template temp35Ds-3, natural NTP 1 mM, Pa′ 3 mM, theoretical [1]
[5] = Entry 9, template temp35A-3, natural NTP 1 mM, Pa′ 1 mM, theoretical [0]
[6] = Entry 9, template temp35A-3, natural NTP 1 mM, Pa′ 1 mM, theoretical [1]
[7] = Entry 10, template temp35A-3, natural NTP 1 mM, Pa′ 3 mM, theoretical [0]
[8] = Entry 10, template temp35A-3, natural NTP 1 mM, Pa′ 3 mM, theoretical [1]
[9] = Entry 11, template temp35G-3, natural NTP 1 mM, Pa′ 1 mM, theoretical [0]
[10] = Entry 11, template temp35G-3, natural NTP 1 mM, Pa′ 1 mM, theoretical [1]
[11] = Entry 12, template temp35G-3, natural NTP 1 mM, Pa′ 3 mM, theoretical [0]
[12] = Entry 12, template temp35G-3, natural NTP 1 mM, Pa′ 3 mM, theoretical [1]
[13] = Entry 25, template DNA12, natural NTP 3 mM, Pa′ 3 mM, theoretical [6]
[14] = Entry 27, template DNAcont4, natural NTP 3 mM, Pa′ 3 mM, theoretical [6]
[15] = Entry 32, template DNA11, natural NTP 3 mM, Pa′ 3 mM, theoretical [4]
[16] = Entry 33, template DNA12, natural NTP 3 mM, Pa′ 3 mM, theoretical [4]
[17] = Entry 35, template DNAcont4, natural NTP 3 mM, Pa′ 3 mM, theoretical [4]

Sequence of T7 RNA polymerase (P00573 whole entry): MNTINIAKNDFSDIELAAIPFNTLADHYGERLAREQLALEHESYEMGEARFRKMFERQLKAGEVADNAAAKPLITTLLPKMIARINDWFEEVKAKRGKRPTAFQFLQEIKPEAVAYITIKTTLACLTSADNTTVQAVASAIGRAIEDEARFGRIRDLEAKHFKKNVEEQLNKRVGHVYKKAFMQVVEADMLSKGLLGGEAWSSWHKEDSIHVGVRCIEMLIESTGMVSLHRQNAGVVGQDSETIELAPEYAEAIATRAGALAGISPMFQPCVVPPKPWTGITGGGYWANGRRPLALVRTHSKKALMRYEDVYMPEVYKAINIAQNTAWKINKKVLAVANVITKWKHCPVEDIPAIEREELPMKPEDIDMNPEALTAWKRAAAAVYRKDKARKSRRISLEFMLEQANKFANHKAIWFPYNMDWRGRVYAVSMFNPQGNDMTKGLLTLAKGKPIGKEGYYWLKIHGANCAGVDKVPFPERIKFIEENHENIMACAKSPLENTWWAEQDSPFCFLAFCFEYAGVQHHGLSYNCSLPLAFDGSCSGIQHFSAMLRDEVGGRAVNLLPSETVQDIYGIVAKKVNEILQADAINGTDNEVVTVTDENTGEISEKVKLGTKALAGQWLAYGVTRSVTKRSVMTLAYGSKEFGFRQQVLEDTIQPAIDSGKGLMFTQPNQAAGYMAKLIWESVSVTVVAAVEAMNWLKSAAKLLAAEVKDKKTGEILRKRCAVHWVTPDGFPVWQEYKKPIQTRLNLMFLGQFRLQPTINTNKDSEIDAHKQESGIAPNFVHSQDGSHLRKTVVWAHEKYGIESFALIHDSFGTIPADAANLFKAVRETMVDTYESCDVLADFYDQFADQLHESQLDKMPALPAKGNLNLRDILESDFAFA
Description: Transcription (20 μl) was accomplished in 40 mM Tris-HCl buffer (pH 8.0) containing 24 mM MgCl2, 2 mM spermidine, 5 mM DTT, 0.01% Triton X-100, 1-3 mM each natural NTP, 0-3 mM Pa′TP, 0-3 mM DsTP, 10 mM GMP, 2 μM template DNA (for 17-mer transcript synthesis) or 0.5 μM template DNA (for tRNA transcript synthesis), and 2.5 units/μl T7 RNA polymerase (TAKARA). […] For nucleotide composition analysis in transcripts (Non-patent Documents 17 and 33), the transcripts were internally labeled with 2 μCi [α-^32P]UTP or [α-^32P]ATP (Amersham). After the transcription, the products were digested with 0.75 units of RNase T2 at 37° C. for 2 hours in 10 μl of 15 mM sodium acetate buffer (pH 4.5). For 17-mer analysis, 0.05 A260 units of E. coli tRNA (Sigma) was added to the digestion reaction solution. The digestion products were analyzed by 2D-TLC (HPTLC plate, 100×100 mm, Merck). The developing solvents used for the first and second dimensions were isobutyric acid-ammonia-water (66:1:33 v/v/v) and isopropyl alcohol-HCl-water (70:15:15 v/v/v or 75:15:10 v/v/v for Pa′ transcripts), respectively. Spots of the labeled nucleotides on the TLC plate were analyzed with a bio-imaging analyzer.
The internally ^32P-labeled transcripts were digested with Rnase T2, and the resulting labeled nucleoside 3′-monophosphates were analyzed by 2D thin-layer chromatography (2D-TLC).

For `CC#Cc1cc(C=O)n([C@@H]2O[C@H](COP(=O)(O)OP(=O)(O)OP(=O)(O)O)[C@@H](O)[C@H]2O)c1` [Pa′TP, 4-Propynyl-1-(β-D-ribofuranosyl)pyrrole-2-carbaldehyde 5′-triphosphate], the “Composition of nucleotide incorporated as 5′ neighbor of A: Cp” value (“Composition … of A: Cp” for short) [1] was 0.01 [0], the “Composition of nucleotide incorporated as 5′ neighbor of A: Up” value (“Composition … of A: Up” for short) [1] was 0.02 [0] and the “Composition of nucleotide incorporated as 5′ neighbor of A: Ap” value (“Composition … of A: Ap” for short) [2] was 1.03 [1]. For the same compound, the “Composition of nucleotide incorporated as 5′ neighbor of A: Np (Pa′p)” value (“Composition … of A: Np (Pa′p)” for short) [2] was 0.95 [1], the “Composition of nucleotide incorporated as 5′ neighbor of A: Gp” value (“Composition … of A: Gp” below) (Entry 7, template temp35Ds-3, natural NTP 1 mM, Pa′ 1 mM, theoretical [2]) was 2.00 [2] and the “Composition … of A: Cp” value [3] was 0.01 [0]. The “Composition … of A: Up” value [3] was 0.02 [0], the “Composition … of A: Ap” value [4] was 1.01 [1] and the “Composition … of A: Np (Pa′p)” value [4] was 0.97 [1]. The “Composition … of A: Gp” value (Entry 8, template temp35Ds-3, natural NTP 1 mM, Pa′ 3 mM, theoretical [2]) was 1.99 [2], the “Composition … of A: Cp” value [5] was “n.d. [0]” and the “Composition … of A: Np (Pa′p)” value [5] was “n.d. [0]”. The “Composition … of A: Ap” value [6] was 0.99 [1], the “Composition … of A: Up” value [6] was 1.03 [1] and the “Composition … of A: Gp” value (Entry 9, template temp35A-3, natural NTP 1 mM, Pa′ 1 mM, theoretical [2]) was 1.98 [2]. The “Composition … of A: Cp” value [7] was 0.01 [0], the “Composition … of A: Np (Pa′p)” value [7] was “n.d. [0]” and the “Composition … of A: Ap” value [8] was 0.99 [1]. For the same compound, the “Composition … of A: Up” value [8] was 1.00 [1], the “Composition … of A: Gp” value (Entry 10, template temp35A-3, natural NTP 1 mM, Pa′ 3 mM, theoretical [2]) was 1.99 [2] and the “Composition … of A: Np (Pa′p)” value [9] was “n.d. [0]”. For the same compound, the “Composition … of A: Up” value [9] was 0.01 [0], the “Composition … of A: Ap” value [10] was 1.01 [1] and the “Composition … of A: Cp” value [10] was 1.00 [1]. The “Composition … of A: Gp” value (Entry 11, template temp35G-3, natural NTP 1 mM, Pa′ 1 mM, theoretical [2]) was 1.98 [2], the “Composition … of A: Np (Pa′p)” value [11] was “n.d. [0]” and the “Composition … of A: Up” value [11] was 0.01 [0]. The “Composition … of A: Ap” value [12] was 1.00 [1], the “Composition … of A: Cp” value [12] was 1.01 [1] and the “Composition … of A: Gp” value (Entry 12, template temp35G-3, natural NTP 1 mM, Pa′ 3 mM, theoretical [2]) was 1.98 [2]. The “Composition … of A: Up” value (Entry 24, template DNA11, natural NTP 3 mM, Pa′ 3 mM, theoretical [0]) was 0.09 [0], the “Composition … of A: Np (Pa′p)” value (Entry 24, template DNA11, natural NTP 3 mM, Pa′ 3 mM, theoretical [1]) was 0.97 [1] and the “Composition … of A: Ap” value (Entry 24, template DNA11, natural NTP 3 mM, Pa′ 3 mM, theoretical [5]) was 5.08 [5]. The “Composition … of A: Gp” value (Entry 24, template DNA11, natural NTP 3 mM, Pa′ 3 mM, theoretical [6]) was 5.98 [6], the “Composition … of A: Cp” value (Entry 24, template DNA11, natural NTP 3 mM, Pa′ 3 mM, theoretical [7]) was 6.88 [7] and the “Composition … of A: Up” value (Entry 25, template DNA12, natural NTP 3 mM, Pa′ 3 mM, theoretical [0]) was 0.07 [0]. The “Composition … of A: Np (Pa′p)” value (Entry 25, template DNA12, natural NTP 3 mM, Pa′ 3 mM, theoretical [1]) was 0.98 [1], the “Composition … of A: Ap” value [13] was 6.05 [6] and the “Composition … of A: Gp” value [13] was 5.94 [6]. For the same compound, the “Composition … of A: Cp” value (Entry 25, template DNA12, natural NTP 3 mM, Pa′ 3 mM, theoretical [7]) was 6.96 [7], the “Composition … of A: Np (Pa′p)” value (Entry 27, template DNAcont4, natural NTP 3 mM, Pa′ 3 mM, theoretical [0]) was “n.d. [0]” and the “Composition … of A: Up” value (Entry 27, template DNAcont4, natural NTP 3 mM, Pa′ 3 mM, theoretical [1]) was 1.06 [1]. For the same compound, the “Composition … of A: Ap” value [14] was 6.04 [6], the “Composition … of A: Gp” value [14] was 6.00 [6] and the “Composition … of A: Cp” value (Entry 27, template DNAcont4, natural NTP 3 mM, Pa′ 3 mM, theoretical [7]) was 6.90 [7]. The “Composition of nucleotide incorporated as 5′ neighbor of U: Np (Pa′p)” value (“Composition … of U: Np (Pa′p)” below) (Entry 32, template DNA11, natural NTP 3 mM, Pa′ 3 mM, theoretical [0]) was 0.01 [0], the “Composition of nucleotide incorporated as 5′ neighbor of U: Ap” value (“Composition … of U: Ap” for short) (Entry 32, template DNA11, natural NTP 3 mM, Pa′ 3 mM, theoretical [2]) was 2.01 [2] and the “Composition of nucleotide incorporated as 5′ neighbor of U: Gp” value (shortened to “Composition … of U: Gp”) [15] was 3.98 [4]. For the same compound, the “Composition of nucleotide incorporated as 5′ neighbor of U: Up” value (“Composition … of U: Up” below) [15] was 4.00 [4], the “Composition of nucleotide incorporated as 5′ neighbor of U: Cp” value (from here on “Composition … of U: Cp”) (Entry 32, template DNA11, natural NTP 3 mM, Pa′ 3 mM, theoretical [5]) was 5.01 [5] and the “Composition … of U: Np (Pa′p)” value (Entry 33, template DNA12, natural NTP 3 mM, Pa′ 3 mM, theoretical [0]) was 0.01 [0]. The “Composition … of U: Ap” value (Entry 33, template DNA12, natural NTP 3 mM, Pa′ 3 mM, theoretical [2]) was 2.00 [2], the “Composition … of U: Cp” value [16] was 4.05 [4] and the “Composition … of U: Gp” value [16] was 3.94 [4]. For the same compound, the “Composition … of U: Up” value [16] was 4.01 [4], the “Composition … of U: Np (Pa′p)” value (Entry 35, template DNAcont4, natural NTP 3 mM, Pa′ 3 mM, theoretical [0]) was “n.d. [0]” and the “Composition … of U: Ap” value (Entry 35, template DNAcont4, natural NTP 3 mM, Pa′ 3 mM, theoretical [2]) was 2.02 [2]. The “Composition … of U: Gp” value [17] was 4.00 [4], the “Composition … of U: Up” value [17] was 3.97 [4] and the “Composition … of U: Cp” value (Entry 35, template DNAcont4, natural NTP 3 mM, Pa′ 3 mM, theoretical [5]) was 5.01 [5].
